# ChEMBL document CHEMBL1129810, “Eicosanoid biosynthesis: differential inhibition of cytochrome P450 epoxygenase and -hydroxylase” (Bioorg Med Chem Lett, 1997)
# Target: T1, Cytochrome P450 2C23 (Rattus norvegicus, UniProt P24470)
# T1 sequence (P24470 whole entry): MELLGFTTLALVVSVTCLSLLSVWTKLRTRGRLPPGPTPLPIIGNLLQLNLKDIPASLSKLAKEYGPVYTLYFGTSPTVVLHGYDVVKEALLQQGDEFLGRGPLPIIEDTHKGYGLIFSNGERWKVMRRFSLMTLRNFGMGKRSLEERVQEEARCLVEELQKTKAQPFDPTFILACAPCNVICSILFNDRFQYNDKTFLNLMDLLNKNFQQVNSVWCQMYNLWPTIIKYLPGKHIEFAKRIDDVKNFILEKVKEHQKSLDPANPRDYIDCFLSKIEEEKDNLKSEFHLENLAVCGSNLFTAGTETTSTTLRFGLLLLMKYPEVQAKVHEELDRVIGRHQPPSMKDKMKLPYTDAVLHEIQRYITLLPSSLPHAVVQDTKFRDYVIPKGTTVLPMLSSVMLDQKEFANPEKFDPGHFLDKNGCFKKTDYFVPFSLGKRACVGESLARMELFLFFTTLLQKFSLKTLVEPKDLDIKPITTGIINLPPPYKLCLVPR
# Assay: Inhibition of Cytochrome P450 epoxygenase in rat kidney microsomes
# Type: ADME
row,IC50 [µM],SMILES
1,5,C#CC#CC(O)CCc1ccccc1-c1ccccc1CO (stereo not drawn)
2,6,COC(=O)CCCCCCCC=C(Br)Br
3,6,CS(=O)(=O)NC(=O)CCCCCCCC=C(Br)Br
